Experimental data: EP1431280A1, “ARYL SULFAMATE DERIVATIVES” (Kyowa Hakko Kogyo Co., Ltd, priority 2001, dated 2003)

Each compound was assayed against T1, recombinant human estrone sulfatase (Homo sapiens, UniProt P08842) (assay: Test for inhibition of estrone sulfatase (steroid sulfatase)). Conditions: 4-methylumbelliferyl sulfate 0.3 mmol/L, phosphate buffer pH 7.5, 37 °C, 1 hour, fluorescence of 4-methylumbelliferone; read-out: IC50, inhibitory activity against steroid sulfatase.
T1 construct: made in house; host or cells: Chinese Hamster Ovary (CHO) cells
T1 sequence (P08842 22-583): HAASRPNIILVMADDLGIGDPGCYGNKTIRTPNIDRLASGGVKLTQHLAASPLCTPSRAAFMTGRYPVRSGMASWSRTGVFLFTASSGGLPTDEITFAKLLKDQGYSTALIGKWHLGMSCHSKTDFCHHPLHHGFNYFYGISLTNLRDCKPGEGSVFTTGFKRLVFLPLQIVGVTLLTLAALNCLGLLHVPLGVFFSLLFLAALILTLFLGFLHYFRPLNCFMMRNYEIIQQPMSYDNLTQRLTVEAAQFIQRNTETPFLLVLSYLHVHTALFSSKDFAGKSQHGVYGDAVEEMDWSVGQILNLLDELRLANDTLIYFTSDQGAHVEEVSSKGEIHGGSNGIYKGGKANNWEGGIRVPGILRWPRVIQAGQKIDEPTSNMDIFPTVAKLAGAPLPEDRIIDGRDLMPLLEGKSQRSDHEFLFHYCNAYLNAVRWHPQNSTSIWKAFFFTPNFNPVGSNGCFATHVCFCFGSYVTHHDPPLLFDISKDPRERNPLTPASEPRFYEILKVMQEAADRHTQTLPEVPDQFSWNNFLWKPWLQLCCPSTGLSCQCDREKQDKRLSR
Format: biochemical
Description: 4-Methylumbelliferyl sulfate (final concentration 0.3 mmol/L), recombinant human estrone sulfatase (7.8 ng/well), and each solution of the test compound having each test concentrations (test compound was dissolved in 0.001 mL of DMSO) were added to a phosphate buffer (pH 7.5) (final volume 0.1 mL) containing 0.28 mol/L sucrose and 0.04 mol/L nicotinamide. An enzyme reaction was conducted at 37 °C for 1 hour. The human estrone sulfatase gene was introduced into Chinese Hamster Ovary (CHO) cells, and the recombinant human estrone sulfatase was expressed, then it was used after partial purification. After completing the enzyme reaction, 2 mol/L glycine-sodium hydroxide solution (pH 10.3) (0.13 mL) was added and stirred. Using a fluorescent plate reader (Cyto Fluor II), the fluorescent strength of the generated 4-methylumbelliferone was measured. The measurements were conducted in duplicate at the same time. The fluctuations within the assay were within 10%. An enzyme reaction without the presence of a test compound was conducted at the same time. The inhibitory activity against estrone sulfatase for each concentration of the test compounds was calculated using the following equation. • A: Amount of 4-methylumbelliferone when test compound is present • B: Amount of 4-methylumbelliferone when test compound is not present [formula]
The inhibitory activity against estrone sulfatase of the aryl sulfamate derivative can be expressed as the concentration (IC50) of aryl sulfamate derivative at which the estrone sulfatase activity in the presence of the aryl sulfamate derivative is half of that when no test compound is added.

Row | IC50 [nM] | SMILES
1 | 14 | CCCCCCCCCNC(=O)C(C#N)=Cc1ccc(OS(N)(=O)=O)cc1 [Compound 5]
2 | 12 | CCCCCCCNC(=O)C(C#N)=Cc1ccc(OS(N)(=O)=O)cc1 [Compound 6]
3 | < 12 | CCCCCCCNC(=O)C(C#N)=C(C)c1ccc(OS(N)(=O)=O)cc1 [Compound 16]
4 | 35 | CCCCCCCCCNC(=O)C(C#N)=C(CF)c1ccc(OS(N)(=O)=O)cc1 [Compound 19]
5 | < 12 | CCCCCCCCCNC(=O)C(C#N)=C(O)c1ccc(OS(N)(=O)=O)cc1 [Compound 22]
6 | 44 | CCCCCCCCCNC(=O)C=C(C#N)c1ccc(OS(N)(=O)=O)cc1 [Compound 47]
7 | 99 | CCCCCCCCCNC(=O)C#Cc1ccc(OS(N)(=O)=O)cc1 [Compound 57]
8 | 31 | CCCCCCCCCNC(=O)CC(=O)c1ccc(OS(N)(=O)=O)cc1 [Compound 58]

Row | SMILES | IC50 [nM]
9 | CCCCCCCCNC(=O)/C(C#N)=C(\C)c1ccc(OS(N)(=O)=O)cc1 [Compound 15] | < 12
10 | CCCCCCCCCNC(=O)C(C#N)=C(CC)c1ccc(OS(N)(=O)=O)cc1 [Compound 17] | 17
